One molecule from patent US7247321B2, “Skin whitening compositions containing asparagus extract” (Access Business Group International LLC, priority 2003, dated 2007) can be followed below.

Structures are written as SMILES.

This assay concerns mouse derived immortalized melanocyte cells (M3). Briefly: Suppression of melanogenesis in vitro (melanin extracted, optical density at 405 nm; visual count of melanized cells). The class given is cell-based. As to conditions: Treatment Dose 0.100%; M3 melanocytes, treated days 1, 3, 5; melanin extracted day 6, OD 405 nm.

Consider `O=C1O[C@H]([C@@H](O)CO)C(O)=C1O` [Ascorbic Acid], for which the “% Control Melanin” value is on record as 51%.
